The target in one assay is T1, human A1 AR (Homo sapiens, UniProt P30542).
T1 construct: expressed in transfected cells
T1 sequence (P30542 1-326): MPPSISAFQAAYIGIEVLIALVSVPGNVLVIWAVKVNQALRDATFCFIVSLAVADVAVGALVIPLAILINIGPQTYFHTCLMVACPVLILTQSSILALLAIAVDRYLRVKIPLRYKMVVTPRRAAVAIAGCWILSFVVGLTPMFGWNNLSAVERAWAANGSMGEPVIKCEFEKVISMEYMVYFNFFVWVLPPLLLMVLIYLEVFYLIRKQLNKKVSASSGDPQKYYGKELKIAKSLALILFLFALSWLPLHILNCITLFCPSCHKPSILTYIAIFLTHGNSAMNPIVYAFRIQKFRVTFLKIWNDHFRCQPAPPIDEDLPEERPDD
In words: Radioligand binding at human A1 AR ([3H]NECA, membranes of CHO cells). The note with it: for Ki: Example 7, agonist radioligand [3H]45, read-out: AR Affinity Ki, nM, A1. The method, then:
(§1) [^3H](2-[p-(2-Carboxyethyl)phenyl-ethylamino]-5′-N-ethylcarboxamido-adenosine) (37, [^3H]CGS21680, 40.5 Ci/mmol) and [^125I]N^6-(4-amino-3-iodobenzyl)adenosine-5′-N-methyluronamide (38, [^125I]I-AB-MECA, 2200 Ci/mmol) were purchased from Perkin-Elmer Life and Analytical Science (Boston, Mass.). Test compounds were prepared as 5 mM stock solutions in DMSO and stored frozen at −20° C.
(§2) CHO cells stably expressing the recombinant hA1 and hA3Rs, and HEK-293 cells stably expressing the hA2AAR were cultured in Dulbecco's modified Eagle medium (DMEM) and F12 (1:1) supplemented with 10% fetal bovine serum, 100 units/mL penicillin, 100 μg/mL streptomycin, and […] glutamine. In addition, 800 μg/mL geneticin was added to the A2A media, while 500 μg/mL hygromycin was added to the A1 and A3 media. After harvesting, cells were homogenized and suspended in PBS. Cells were then centrifuged at 240 g for 5 min, and the pellet was resuspended in 50 mM Tris-HCl buffer (pH 7.5) containing 10 mM MgCl2. The suspension was homogenized and was then ultra-centrifuged at 14,330 g for 30 min at 4° C. The resultant pellets were resuspended in Tris buffer, incubated with adenosine deaminase (3 units/mL) for 30 min at 37° C. The suspension was homogenized with an electric homogenizer for 10 sec, pipetted into 1 mL vials and then stored at −80° C. until the binding experiments were conducted. The protein concentration was measured using the BCA Protein Assay Kit from Pierce Biotechnology, Inc. (Rockford, Ill.).
(§3) Into each tube in the binding assay was added 50 μL of increasing concentrations of the test ligand in Tris-HCl buffer (50 mM, pH 7.5) containing 10 mM MgCl2, 50 μl, of the appropriate agonist radioligand, and finally 100 μL of membrane suspension. For the A1AR (22 μg of protein/tube) the radioligand used was [^3H]36 (final concentration of 3.5 nM). For the A2AAR (20 μg/tube) the radioligand used was [^3H]37 (10 nM). For the A3AR (21 μg/tube) the radioligand used was [^125I]38 (0.34 nM). Nonspecific binding was determined using a final concentration of 10 μM unlabeled 36 diluted with the buffer. The mixtures were incubated at 25° C. for 60 min in a shaking water bath. Binding reactions were terminated by filtration through Brandel GF/B filters under a reduced pressure using a M-24 cell harvester (Brandel, Gaithersburg, Md.). Filters were washed three times with 3 mL of 50 mM ice-cold Tris-HCl buffer (pH 7.5). Filters for A1 and A2AAR binding were placed in scintillation vials containing 5 mL of Hydrofluor scintillation buffer and counted using a Perkin Elmer Liquid Scintillation Analyzer (Tri-Carb 2810TR). Filters for A3AR binding were counted using a Packard Cobra II γ-counter. The Ki values were determined using GraphPad Prism for all assays.
(§4) [^3H](2-[p-(2-carboxyethyl)phenyl-ethylamino]-5′-N-ethylcarboxamido-adenosine) ([^3H]CGS21680, 40.5 Ci/mmol) and [^125I]N^6-(4-amino-3-iodobenzyl)adenosine-5′-N-methyluronamide ([^125I]I-AB-MECA, 2200 Ci/mmol) were purchased from PerkinElmer. Test compounds were prepared as 5-mM stock solutions in DMSO and stored frozen at −20° C.
(§5) Chinese hamster ovary (CHO) cells were generated by stably expressing the recombinant hA1 and hA3 and human embryonic kidney (HEK) 293 cells stably expressing the hA2AAR in DMEM and F12 (1:1) supplemented with 10% fetal bovine serum, 100 units/mL penicillin, 100 μg/mL streptomycin, and 2 μmol/mL glutamine. 800 μg/mL Geneticin were added to the A2A media and 500 μg/mL hygromycin to the A1 and A3 media. After harvesting the cells, they were homogenized with an electric homogenizer for 10 sec, pipetted them into 1-mL vials, and then stored them at −80° C. until the binding experiments were conducted. The protein concentration was measured with a BCA Protein Assay Kit from Pierce Biotechnology (Rockford, Ill.). […]

In a further assay the target is T2, human A3AR (Homo sapiens, UniProt P0DMS8).
T2 construct: expressed in transfected cells
T2 sequence (P0DMS8 1-318): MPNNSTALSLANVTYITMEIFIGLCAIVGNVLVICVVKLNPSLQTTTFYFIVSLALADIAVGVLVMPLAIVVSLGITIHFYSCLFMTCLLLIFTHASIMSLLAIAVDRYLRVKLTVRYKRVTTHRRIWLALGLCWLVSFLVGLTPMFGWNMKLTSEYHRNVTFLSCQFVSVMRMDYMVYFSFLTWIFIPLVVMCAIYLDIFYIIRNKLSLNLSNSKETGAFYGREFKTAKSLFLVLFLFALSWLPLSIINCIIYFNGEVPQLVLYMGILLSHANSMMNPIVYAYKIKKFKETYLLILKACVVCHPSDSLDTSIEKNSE
In words: Radioligand binding at human A3 AR ([125I]I-AB-MECA, membranes of CHO cells). The method, then:
Test compounds were prepared as 5 mM stock solutions in DMSO and stored frozen at −20° C.
as §2
as §3, with “For the A1AR (22 μg of protein/tube) the radioligand used was [^3H]36 (final concentration of 3.5 nM).” left out, “For the A3AR (21 μg/tube) the radioligand used was [^125I]38 (0.34 nM).” left out, “Filters for A1 and A2AAR binding were placed in scintillation vials containing 5 mL of Hydrofluor scintillation buffer and counted using a Perkin Elmer Liquid Scintillation Analyzer (Tri-Carb 2810TR).” left out
Test compounds were prepared as 5-mM stock solutions in DMSO and stored frozen at −20° C.
Chinese hamster ovary (CHO) cells were generated by stably expressing the recombinant hA1 and hA3 and human embryonic kidney (HEK) 293 cells stably expressing the hA2AAR in DMEM and F12 (1:1) supplemented with 10% fetal bovine serum, 100 units/mL penicillin, 100 μg/mL streptomycin, and 2 μmol/mL glutamine. 800 μg/mL Geneticin were added to the A2A media and 500 μg/mL hygromycin to the A1 and A3 media. After harvesting the cells, they were homogenized with an electric homogenizer for 10 sec, pipetted them into 1-mL vials, and then stored them at −80° C. until the binding experiments were conducted. The protein concentration was measured with a BCA Protein Assay Kit from Pierce Biotechnology (Rockford, Ill.).
Each tube in the binding assay contained 50 μL of increasing concentrations of the test ligand in Tris-HCl buffer (50 mM, pH 7.5) containing 10 mM MgCl2, 50 μL of the appropriate agonist radioligand, and 100 μL membrane suspension, added sequentially. […] For the A2AAR (20 μg/tube), the radioligand [^3H]CGS21680 was used (−10 nM). […] The mixtures were incubated at 25° C. for 60 min in a shaking water bath. The binding reactions were terminated by filtration through Brandel GF/B filters under a reduced pressure with a M-24 cell harvester (Brandel, Gaithersburg, Md.). Filters were washed three times with 3 mL 50-mM ice-cold Tris-HCl buffer (pH 7.5). […] The filters were counted for A3AR binding with a Packard Cobra II γ-counter (PerkinElmer). The Ki values were determined with GraphPad Prism for all assays.

The next assay has as its target T3, hA2AAR (Homo sapiens, UniProt P29274).
T3 construct: expressed in transfected cells
In words: Radioligand binding at human A2A AR ([3H]CGS21680, membranes of HEK-293 cells). Particulars: for Ki: Example 7, agonist radioligand [3H]46, HEK293, read-out: AR Affinity Ki, nM, A2A. The method, then: as §1, §2, §3, §4, §5

Setting [1] is: Example 7, agonist radioligand [125I]47, read-out: AR Affinity Ki, nM, A3.

Like-named read-outs stand apart in the source and are kept apart here.

What is called Ki is a dissociation constant, usually derived from enzyme kinetics or from competition with a known ligand. As a reminder, the inhibition is the drop in the measured response relative to a control, in per cent.

T3 sequence (P29274 whole entry): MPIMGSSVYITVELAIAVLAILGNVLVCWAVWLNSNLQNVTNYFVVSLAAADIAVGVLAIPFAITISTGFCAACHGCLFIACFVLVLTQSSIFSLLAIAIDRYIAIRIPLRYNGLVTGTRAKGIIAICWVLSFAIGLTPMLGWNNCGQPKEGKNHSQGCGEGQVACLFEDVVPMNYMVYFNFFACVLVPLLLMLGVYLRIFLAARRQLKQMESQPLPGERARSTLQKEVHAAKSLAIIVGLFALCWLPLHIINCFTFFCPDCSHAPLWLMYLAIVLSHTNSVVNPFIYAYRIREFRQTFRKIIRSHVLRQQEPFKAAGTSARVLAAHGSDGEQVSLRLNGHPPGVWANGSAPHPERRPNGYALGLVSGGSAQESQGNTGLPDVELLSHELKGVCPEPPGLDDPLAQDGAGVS

On to `CNC(=O)[C@@]12C[C@@H]1[C@@H](n1cnc3c(NCc4cccc(Cl)c4)nc(C#CCCCc4cn(-c5ccc(F)c([N+](=O)[O-])c5)nn4)nc31)[C@H](O)[C@@H]2O` [Compound 10, (1S,2R,3S,4R,5S)-4′-(6-(3-Chlorobenzylamino)-2-(6-(1-(4-fluoro-3-nitrophenyl)-1H-1,2,3-triazol-4-yl)pent-1-ynyl)-9H-purin-9-yl)-2′,3′-dihydroxybicyclo[3.1.0]hexane-1′-carboxylic acid N-methylamide], for which, at human A1 AR (inhibition of radioligand binding at 10 μM, [3H]36, CHO cells), the “% inhibition, A1” value is given as “(10 ± 3%)”. Moreover, the Ki on human A3AR ([125I]38, CHO cells, read-out: Affinity (Ki, nM), A3) was 26 ± 8.2 nM. Further, at hA2AAR (inhibition of radioligand binding at 10 μM, [3H]37, HEK293 cells), the “% inhibition, A2A” value is given as “(39 ± 4%)”.

Consider `CNC(=O)[C@@]12C[C@@H]1[C@@H](n1cnc3c(NCc4cccc(I)c4)nc(Cl)nc31)[C@H](O)[C@@H]2O` [Compound 127, reference compound], for which the values for the Ki on human A1 AR and on hA2AAR were 136 ± 22 nM and 784 ± 97 nM, respectively.

As for `C#CCCCC#Cc1cccc(CNc2nc(Cl)nc3c2ncn3[C@H]2[C@H](O)[C@H](O)[C@]3(C(=O)NC)C[C@H]23)c1` [Compound 200, (1S,2R,3S,4R,5S)-4-[2-Chloro-6-{3-(1,6-heptadiynylbenzylamino)}-9H-purin—9-yl]-2,3-dihydroxybicyclo[3.1.0]hexane-1-carboxylic acid N-methylamide], the results for the Ki on human A1 AR, at human A3AR (setting [1]) and on hA2AAR were 104 ± 24 nM, 8.1 ± 3.1 nM and 4950 ± 960 nM, respectively.

Take `C#CCCCCC#Cc1cccc(CNc2nc(Cl)nc3c2ncn3[C@H]2[C@H](O)[C@H](O)[C@]3(C(=O)NC)C[C@H]23)c1` [Compound 201, (1S,2R,3S,4R,5S)-4-[2-Chloro-6-{3-(1,7-octadiynyl)benzylamino}-9H-purin-9-yl]-2,3-dihydroxybicyclo[3.1.0]hexane-1-carboxylic acid N-methylamide]: the Ki is 1490 ± 230 nM on human A1 AR and 113 ± 24 nM on human A3AR (setting [1]). Further, on hA2AAR, testing at 10 µM gave an inhibition of 19.7%.

Consider `C#CCCCCCC#Cc1cccc(CNc2nc(Cl)nc3c2ncn3[C@H]2[C@H](O)[C@H](O)[C@]3(C(=O)NC)C[C@H]23)c1` [Compound 202, (1S,2R,3S,4R,5S)-4-[2-Chloro-6-{3-(1,8-nonadiynyl)}-9H-purin-9-yl]-2,3-dihydroxybicyclo[3.1.0]hexane-1-carboxylic acid N-methylamide], for which the inhibition at 10 µM was 47.7% on human A1 AR and 7% at hA2AAR. In addition, the Ki at human A3AR (setting [1]) was found to be 87.2 ± 49 nM.

`CNC(=O)[C@@]12C[C@@H]1[C@@H](n1cnc3c(NCc4cccc(C#CCCCc5cn(-c6ccc(F)c(N)c6)nn5)c4)nc(Cl)nc31)[C@H](O)[C@@H]2O` [Compound 207, (1S,2R,3S,4R,5S)-4-(2-Chloro-6-(3-(5-(1-(4-fluoro-3-amino-phenyl)-1H-1,2,3-triazol-4-yl)pent-1-ynyl)benzylamino)-9H-purin-9-yl)-2,3-dihydroxybicyclo[3.1.0]hexane-1-carboxylic acid-N-methylamide]: at human A3AR (setting [1]), the Ki came out at 14.3 ± 2.3 nM.

For `CNC(=O)[C@@]12C[C@@H]1[C@@H](n1cnc3c(NCc4cccc(C#CCCCCCc5cn(-c6ccc(F)c(N)c6)nn5)c4)nc(Cl)nc31)[C@H](O)[C@@H]2O` [Compound 208, (1S,2R,3S,4R,5S)-4-(2-Chloro-6-(3-(7-(1-(4-fluoro-3-amino-phenyl)-1H-1,2,3-triazol-4-yl)hept-1-ynyl)benzylamino)-9H-purin-9-yl)-2,3-dihydroxybicyclo[3.1.0]hexane-1-carboxylic acid-N-methylamide], the Ki at human A3AR (setting [1]) is 47.6 ± 11.3 nM.

As to `C#CCNc1nc(Cl)nc2c1ncn2[C@H]1[C@H](O)[C@H](O)[C@]2(C(=O)NC)C[C@H]12` [Compound 218, (1S,2R,3S,4R,5S)-4-(2-Chloro-6-(prop-2-ynylamino)-9H-purin-9-yl)-2,3-dihydroxy-N-methylbicyclo[3.1.0]hexane-1-carboxamide], at human A3AR (setting [1]), the Ki is 1.9 nM.

The values above are taken from patent US8518957B2, “Methanocarba adenosine derivatives, pharmaceutical compositions, and method of reducing intraocular pressure” (The United States of America, as represented by the …, priority 2009, dated 2013).
